Tested on: Black donor endothelial cells (HUVEC)
Experiment: NO release from HUVEC of Black donors, measured with a porphyrinic nanosensor
Assay type: cell-based, Human
Details: for magnitude of the increase in NO release, Black versus White donor cells: chronic ACE inhibitor treatment followed by nebivolol 1 μM, FIG. 2 and FIG. 4
Protocol: All measurements presented were recorded in vitro using a sensitive porphyrinic probe, as previously described. Malinski T, Taha Z., Nature. 1992; 358:676-678; Malinski T, Czuchajowski L., Methods in Nitric Oxide Research. 1996:319-339. NO release was measured directly from HUVEC. HUVEC cells from Black and White donors were grown in Ham's F12K medium with 2 mM L-glutamine adjusted to contain 1.5 g/L sodium bicarbonate and supplemented with 0.1 mg/ml heparin and 0.03-0.05 mg/ml endothelial cell growth supplement (ECGS) +10% fetal bovine serum. The HUVEC cells were kept in an atmosphere of elevated CO2 concentration (5%). Nebivolol was obtained from Mylan Laboratories (Morgantown, W.Va.).
All measurements of endothelial NO release were conducted in Hank's balance solution at 37° C. Cell wells were transferred to a Faraday cage and a porphyrinic sensor (diameter 0.5 mm) was positioned at a distance of 5±2 μm from the surface of the endothelial cells using an inverted microscope (Leica Microsystems, Wetzlar, Germany) and a computer-assisted micromanipulator. The sensor operated with a three-electrode system: nanosensor (working electrode), saturated calomel electrode (reference electrode) and platinum wire (counter electrode, 0.5 mm diameter). The three electrodes were connected to a potentiostat/galvanostat PAR273. The baseline was stabilized after about 20 seconds. The test compounds were injected with a nanoinjector onto the surface of the cells following solubilization in buffer. Cells were incubated with the test compounds for a 24-hour period. The compounds were then washed out of the system before being immediately reintroduced in order to evaluate the consequences of chronic treatment on NO release from the cells. For additive experiments, cells were incubated with ACE inhibitor for 24 hours, the inhibitor was washed out of the system, nebivolol was added and the NO release measured. The current proportional to the NO concentration was measured with the sensor, which operated in amperometric mode at a constant potential of 0.63V. Data were acquired with the use of an IBM computer with custom software and amperograms (current vs. time curves) were recorded with a Guniry FAS1 Femtostat (Warminster, Pa.). Maximum release of NO was produced using a calcium agonist (1 μM). By increasing cytoplasmic levels of calcium, the ion can bind to calmodulin. The Ca2+-calmodulin complex is a cofactor for endothelial NO synthase, along with FAD, FMN, Heme and BH4.
Nanosensors were prepared from carbon fibers. The size of the tip of carbon fiber was reduced from 6 μm to less than 1 μm by temperature controlled burning. The sensors were sensitized to NO by deposition of electrically conductive polymeric porphyrin and covered with a thin layer of Nafion. […]

Q: For C[C@H](N[C@@H](CCc1ccccc1)C(=O)O)C(=O)N1[C@H](C(=O)O)C[C@@H]2CCC[C@@H]21 [ramiprilat], which “effect on the ability of nebivolol to increase NO release” value (Black donor cells, chronic (24 h) ramiprilat 1, 5 and 10 μM, washed out, then nebivolol 1 μM, FIG. 1) is on record?
A: Its value is “modest but significant effects”.

Q: And the “magnitude of the increase in NO release, Black versus White donor cells” value?
A: Its value is “greater in endothelial cells from Black donors”.

Q: CCOC(=O)[C@H](CCc1ccccc1)N[C@@H](C)C(=O)N1CCC[C@H]1C(=O)O [enalapril] was tested. Which “enhancement of the ability of nebivolol to increase NO release” value (Black donor cells, chronic (24 h) enalapril 5 and 10 μM, then nebivolol 1 μM, FIG. 3) did it give?
A: The value was “significantly enhanced”.

Q: And the “magnitude of the increase in NO release, Black versus White donor cells” value?
A: The value was “greater in endothelial cells from Blacks than Whites”.

From patent publication US7838552B2, “Compositions comprising nebivolol” (Forest Laboratories Holdings Limited, priority 2004, dated 2010)
